These results are taken from paper PMC2662629 (Pharmaceutical research, 2008).

Several values for one entry are separate records, joined by “and”; a condition that tells them apart may be missing. Identical values can stand only once. Entries after “also recorded” stand apart in the source; their conditions may differ. Like-named read-outs stand apart in the source and are kept apart here.

For one data set, the target named is T1, ABCG2 (Rattus norvegicus, UniProt Q80W57).
T1 sequence (Q80W57 1-657): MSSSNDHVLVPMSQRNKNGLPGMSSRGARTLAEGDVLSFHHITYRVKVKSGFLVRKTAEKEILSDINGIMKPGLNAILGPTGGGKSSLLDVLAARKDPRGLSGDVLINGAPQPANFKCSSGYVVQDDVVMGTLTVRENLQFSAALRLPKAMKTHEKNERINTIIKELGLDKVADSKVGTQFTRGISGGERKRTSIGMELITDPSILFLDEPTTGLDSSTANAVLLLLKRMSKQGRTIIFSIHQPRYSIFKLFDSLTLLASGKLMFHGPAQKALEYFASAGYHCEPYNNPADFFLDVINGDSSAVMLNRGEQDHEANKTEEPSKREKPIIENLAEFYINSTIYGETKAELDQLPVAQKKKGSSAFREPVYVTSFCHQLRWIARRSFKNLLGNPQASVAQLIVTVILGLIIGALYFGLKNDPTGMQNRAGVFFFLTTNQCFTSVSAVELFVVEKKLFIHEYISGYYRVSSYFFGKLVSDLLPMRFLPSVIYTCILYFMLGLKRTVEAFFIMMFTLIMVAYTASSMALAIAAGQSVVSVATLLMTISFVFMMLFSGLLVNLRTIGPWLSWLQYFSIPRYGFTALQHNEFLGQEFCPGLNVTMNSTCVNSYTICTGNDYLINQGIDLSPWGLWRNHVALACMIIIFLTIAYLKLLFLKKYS
In words: Bodipy FL prazosin transport assay in isolated rat brain capillaries. It counts as cell-based. The conditions noted are these: for IC50: rat brain capillaries.

A further data set relates to MCF-7 cells. The conditions noted are these: read-out: IC50 for MCF-7 cells; cited from earlier work.
Data set [1] has as its target T2, mouse ABCG2 (Mus musculus, UniProt Q7TMS5).
T2 sequence (Q7TMS5 1-657): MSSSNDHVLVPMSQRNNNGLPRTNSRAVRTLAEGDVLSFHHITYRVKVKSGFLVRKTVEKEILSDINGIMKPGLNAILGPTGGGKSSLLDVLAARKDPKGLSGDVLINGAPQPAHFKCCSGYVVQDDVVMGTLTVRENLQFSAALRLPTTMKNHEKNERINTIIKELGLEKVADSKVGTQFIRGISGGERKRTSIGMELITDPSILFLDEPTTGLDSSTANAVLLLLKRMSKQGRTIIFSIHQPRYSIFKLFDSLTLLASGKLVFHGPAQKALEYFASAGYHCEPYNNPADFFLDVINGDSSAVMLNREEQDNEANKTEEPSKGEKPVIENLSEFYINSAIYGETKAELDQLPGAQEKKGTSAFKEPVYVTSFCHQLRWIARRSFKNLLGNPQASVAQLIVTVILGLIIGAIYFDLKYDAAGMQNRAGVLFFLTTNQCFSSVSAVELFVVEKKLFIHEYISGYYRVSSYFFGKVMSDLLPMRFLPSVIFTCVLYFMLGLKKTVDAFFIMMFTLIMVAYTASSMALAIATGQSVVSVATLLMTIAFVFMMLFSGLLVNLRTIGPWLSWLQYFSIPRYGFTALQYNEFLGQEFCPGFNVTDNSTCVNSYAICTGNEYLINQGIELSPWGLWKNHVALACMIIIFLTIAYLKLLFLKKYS
It counts as in vivo, mice.

For data set [2], the system named is mouse ABCG2. It counts as in vivo, mice. As to conditions: FVB, mouse, plasma, oral, 20 mg/kg.
The target of another data set is T3, human ABCG2 (Homo sapiens, UniProt Q9UNQ0).
T3 sequence (Q9UNQ0 1-655): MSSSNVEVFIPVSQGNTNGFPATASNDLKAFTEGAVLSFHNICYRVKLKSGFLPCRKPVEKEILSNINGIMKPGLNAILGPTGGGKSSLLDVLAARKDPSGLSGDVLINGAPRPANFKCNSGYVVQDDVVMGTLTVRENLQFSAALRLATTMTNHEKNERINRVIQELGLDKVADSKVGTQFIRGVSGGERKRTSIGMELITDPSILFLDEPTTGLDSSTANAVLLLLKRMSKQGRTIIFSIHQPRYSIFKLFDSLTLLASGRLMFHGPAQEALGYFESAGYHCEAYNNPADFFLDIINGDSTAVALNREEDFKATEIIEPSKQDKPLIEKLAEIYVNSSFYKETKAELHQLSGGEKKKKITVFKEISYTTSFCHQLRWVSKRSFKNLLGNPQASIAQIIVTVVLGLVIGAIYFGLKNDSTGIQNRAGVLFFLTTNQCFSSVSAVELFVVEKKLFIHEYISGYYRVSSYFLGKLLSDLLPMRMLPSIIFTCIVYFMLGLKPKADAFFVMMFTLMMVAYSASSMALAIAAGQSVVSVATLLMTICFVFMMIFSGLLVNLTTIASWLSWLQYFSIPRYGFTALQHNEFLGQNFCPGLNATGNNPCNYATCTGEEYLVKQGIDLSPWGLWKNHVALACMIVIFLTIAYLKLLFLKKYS
It counts as binding.

Data set [3] concerns mouse ABCG2. It counts as in vivo, mice.
For data set [4] the following is noted: clinical trials in humans; cited from earlier work.
A further data set concerns pancreatic cancer. As to conditions: oral administration of 8 g curcumin daily up to 18 months; cited from earlier work.

Turning to `COc1ccc2c3c([nH]c2c1)[C@H](C=C(C)C)N1C(=O)[C@@H]2CCCN2C(=O)[C@@H]1C3` [FTC, fumitremorgin C], the “inhibition of the efflux of Bodipy-prazosin in brain capillaries” value against ABCG2 worked out at 50%. The “luminal BODIPY FL prazosin fluorescence, % of control capillaries” value on ABCG2 (5 μM inhibitor, steady state) was “approximately 50%”.

In general, IC50 refers to the concentration that inhibits the measured activity by half. `COc1cc2c(cc1OC)CN(CCc1ccc(NC(=O)c3cccc4c(=O)c5cccc(OC)c5[nH]c34)cc1)CC2` [GF120918]: the IC50 in the data set with MCF-7 cells was 18000 nM.

As for `COc1ccc2c3c([nH]c2c1)[C@H](CC(C)C)N1C(=O)[C@H](CCC(=O)OC(C)(C)C)NC(=O)[C@@H]1C3` [Ko143], the IC50 in the data set with MCF-7 cells is 19000 nM.

The term half-life denotes the time needed for the level to fall by half in the phase considered. Higher therefore signals slow loss. For orientation: Cmax means the highest concentration seen after dosing. On to `O=C(O)c1cc(/N=N/c2ccc(S(=O)(=O)Nc3ccccn3)cc2)ccc1O` [SASP, Sulfasalazine], for which the half-life was 5.02 h at mouse ABCG2 [1] (FVB, mouse, plasma, po) and 1.08 h on mouse ABCG2 [1] (FVB, mouse, plasma, po, 20 mg/kg). The Cmax on mouse ABCG2 [1] (FVB, mouse, plasma, po, 20 mg/kg, Cmax of SASP, SASP 20 mg/kg PO, vehicle pretreatment, wild-type mice) came out at 1230 ng/mL. The concentration at 24 h in the data set on mouse ABCG2 [2] is < 1 ng/mL. Also, at human ABCG2, the concentration for half-maximal inhibition (IC50) turned out to be 1020 nM. Besides, the “SASP plasma level in abcg2-/- mice relative to abcb1a-/- and wild-type groups” value with mouse ABCG2 [3] (90 min after SASP 20 mg/kg PO) was 10-20 fold. Besides, the concentration at 90 min in the data set with mouse ABCG2 [3] (FVB, mouse, plasma, oral, 20 mg/kg) is ~540 ng/mL and 12400 ng/mL.

As for `COc1cc(/C=C/C(=O)CC(=O)/C=C/c2ccc(O)c(OC)c2)ccc1O` [curcumin, Diferuoyl methane], the “effect of curcumin pretreatment on plasma concentration of SASP” value at mouse ABCG2 [1] (curcumin 40 mg/kg PO 1 h before SASP 20 mg/kg PO, FVB-WT mice, data not shown) is listed as “no effect”. Moreover, the “systemic bioavailability of orally administered curcumin” value in data set [4] is “relatively low”. Besides, the “effect of curcumin on the levels of SASP” value in the data set with mouse ABCG2 [3] (abcg2-/- mice, curcumin 400 mg/kg PO, 90 min after SASP 20 mg/kg PO) is recorded as “no significant effect; also recorded: no significant increase”. In addition, the “progression of pancreatic cancer” value with pancreatic cancer was “inhibited progression”. Further, the IC50 came out at 19 nM at ABCG2 (IC50, inhibition of ABCG2-mediated efflux of BODIPY FL prazosin, ex vivo) and 19.4 nM on ABCG2 (IC50, inhibition of ABCG2 activity (luminal BODIPY FL prazosin fluorescence), 2 μM BODIPY FL prazosin, 1 h, room temperature).
